Entries after “also recorded” stand apart in the source; their conditions may differ. Where two headings read alike, the source gives them in different places. Where a SMILES comes first, the peptide text is derived from it. Side-chain parts run from the residue outwards. The star is where a group is joined. Daunorubicin(13-NOCH2CO) = COc1cccc2c1C(=O)c1c(O)c3c(c(O)c1C2=O)C[C@@](O)(C(C)=NOCC(=O)*)C[C@@H]3O[C@H]1C[C@H](N)[C@H](O)[C@H](C)O1
What was measured:
PANC-1 cells = assay: cells; assay type: cell-based, human
Method: This measurement is based on the registration of electrical resistance (impedance, Z) in alternating current (AC) field. The living cells transplanted to the gold measuring electrodes are physically insulated by phospholipid bilayer that covers them. This instrumentally measurable property changes (decreases) in response to cellular cytotoxic agents. Our measurements were performed on xCELLigence single plate (ACEA Biosciences, San Diego, CA, USA) dedicated for impedimetric analysis of cellular samples at 37 °C and 5% CO2.
During the initial phase of the experiments—the baseline recording—a special 96-well cell culture plate, E-plate (ACEA Biosciences), equipped with measuring electrodes, was pretreated with freshly prepared cell culture medium (for 60 min; sampling frequency: 1 min). Subsequently, PANC-1 cells were plated at a cell density of 10^4 cells/well. During the 24 h incubation, the cells evenly covered the electrodes at the bottom of the wells of the E-plate. The resulting confluent cell cultures were then treated with the test substances at the following final concentrations: 10^−6, 10^−5, 10^−4 M. Total treatment duration was 72 h and the sampling rate was 1 min (0–24 h); and then 15 min (48–72 h). In our measurements, three replicates were used, the control was the drug-free medium. […] The CI results were analyzed with xCELLigence RTCA 2.0 software and Origin Pro 8.0 software.

Colo-205 cells = assay type: cell-based, human
Method: (§1) EBC-1 and Colo-205 model cells have weak/negligible adherent properties, and A2058 cells could not produce constant cell index values. Therefore, a colorimetric assay (alamarBlue-assay) was chosen instead of the xCELLigence system to investigate the viability of these model cells treated with the conjugates. Due to the growth characteristics of NHDF cells, alamarBlue-assay was performed also on this cell line.
(§2) The protocol for the alamarBlue-assay was similar to the method which was published earlier, with some minor modifications. Briefly, the cell seeding occurred on 96-well cell culture plates (Sarstedt AG, Nümbrecht, Germany) at 10^4 cells/well concentration. After a 24 h long culturing period, the treatment was carried out with the conjugates at 10^−4, 10^−5 and 10^−6 M final concentrations for 24, 48 and 72 h. In the next steps, the alamarBlue reagent (0.15 mg/mL, Sigma-Aldrich) dissolved in phosphate-buffered saline (PBS; pH = 7.2), was added to the wells. After 6 h incubation with the reagent, the fluorescence intensity of the samples was obtained by an LS-50B Luminescence Spectrometer (Perkin Elmer Ltd., Buckinghamshire, UK) or a Fluoroskan^TM FL Microplate Fluorometer and Luminometer (Thermo Scientific, Waltham, MA, USA) by using the following settings: λex = 560 nm and λem = 590 nm.
(§3) Three parallels were performed per treatment group. In the case of controls, an equivalent volume of cell culture media was added to the cell. Fluorescence intensities of the samples treated with various concentrations of conjugates were expressed as a percentage of the fluorescence of control.

A2058 cells = assay type: cell-based, human
Method: as §1, §2, §3

EBC-1 cells = assay type: cell-based, human
Method: as §1, §2, §3

[1] = Lysosomal degradation of conjugates by LC-MS; assay type: in vitro ADME; conditions: rat liver lysosome homogenate, 0.2 M NaOAc pH 5.03, 0.025 μg/μL conjugate, 37 °C; for Time to complete lysosomal degradation: sampling up to 72 h
Method: For the stability and metabolism studies of the conjugates, liquid chromatography–mass spectrometry (LC-MS) analyses were performed on a Q ExactiveTM Focus, high resolution and high mass accuracy, hybrid quadrupole-orbitrap mass spectrometer (Thermo Fisher Scientific, Bremen, Germany) using on-line UHPLC coupling. UHPLC separation was performed on a Dionex 3000 UHPLC system using a Supelco Ascentis C18 column (2.1 × 150 mm, 3 µm). Linear gradient elution (0 min 2% B, 1 min 2% B, 17 min 90% B) with eluent A (0.1% HCOOH in water, v/v) and eluent B (0.1% HCOOH in acetonitrile/water, 80:20, v/v) was used at a flow rate of 0.2 mL/min at 40 °C. High-resolution mass spectra were acquired in the 200–1600 m/z range. LC-MS data were analyzed by XcaliburTM software (Thermo Fisher Scientific) and with Origin Pro 8 (OriginLab Corp., Northampton, MA, USA).
Conjugates were dissolved in distilled water in 2.5 μg/μL concentration followed by dilution with 0.2 M NaOAc solution (pH = 5.03) to 0.025 μg/μL. The lysosome-homogenate was prepared from rat liver and contained proteins in 16.6 μg/μL concentration. An aliquot (20 μL) of this stock solution was further diluted with […] 0.2 M NaOAc solution, therefore the final protein concentration was 0.83 μg/μL. To prepare the reaction mixture, 15 μL (0.83 μg/μL) lysosome homogenate was added to 500 μL (0.025 μg/μL) conjugate solution. Furthermore, a control reaction mixture was always prepared which contained 500 μL conjugate solution and 15 μL NaOAc solution only. The solutions were stirred on 600 rpm at 37 °C and samples (50 μL) were taken out at 0 min, 5 min, 15 min, 30 min, 1 h, 2 h, 6 h, 24 h, and 72 h. The enzymatic activity was quenched by adding 5 μL formic acid to the samples. After this procedure, samples were frozen immediately at −25 °C. Control samples were taken at 0 min, 15 min, 1 h, 6 h, 24 h and 72 h. Composition of the samples was determined by HPLC-MS as described above.

[2] = lysosome-homogenate prepared from rat liver, in 0.2 M NaOAc solution (pH = 5.03); conditions: 37 °C, up to 72 h
[3] = PANC-1, impedimetry, cell index normalized to control wells, 10^−5 M, mean ± SD, n = 3
[4] = alamarBlue fluorescence normalized to control wells, 10^-5 M, mean ± SD, n=3

COc1cccc2c1C(=O)c1c(O)c3c(c(O)c1C2=O)C[C@@](O)(C(C)=NOCC(=O)N[C@@H](CO)C(=O)N[C@@H](CCCCN)C(=O)N[C@@H](C)C(=O)N[C@@H](C)C(=O)N[C@@H](CCCCN)C(=O)N[C@@H](CC(N)=O)C(=O)O)C[C@@H]3O[C@H]1C[C@H](N)[C@H](O)[C@H](C)O1 [conjugate 1, Dau=Aoa-SKAAKN-OH] ({Daunorubicin(13-NOCH2CO)}-SKAAKN-OH)
Viability after 24 h treatment at 10^−4 M (initial CI increase) (PANC-1 cells; 24 h, 1e-4 M): 224.1 ± 18.73% | Viability (%) at 10^−5 M Concentration, After 72 h Incubation (PANC-1 cells; 1e-5 M): 112.5 ± 5.1% | Viability (%) at 10-5 M concentration, after 72 h incubation, Colo-205 (Colo-205 cells; 1e-5 M): 50.7 ± 1.6% | Viability (%) at 10-5 M concentration, after 72 h incubation, A2058 (A2058 cells; 1e-5 M): 61.5 ± 2.7% | Viability (%) at 10-5 M concentration, after 72 h incubation, EBC-1 (EBC-1 cells; 1e-5 M): 77.8 ± 1.0%

COc1cccc2c1C(=O)c1c(O)c3c(c(O)c1C2=O)C[C@@](O)(C(C)=NOCC(=O)N[C@@H](CCCCN)C(=O)N[C@@H](CO)C(=O)N[C@@H](CCCCN)C(=O)N[C@@H](C)C(=O)N[C@@H](C)C(=O)N[C@@H](CCCCN)C(=O)N[C@@H](CC(N)=O)C(=O)O)C[C@@H]3O[C@H]1C[C@H](N)[C@H](O)[C@H](C)O1 [conjugate 2, Dau=Aoa-KSKAAKN-OH] ({Daunorubicin(13-NOCH2CO)}-KSKAAKN-OH)
Speed of lysosomal degradation (in words) [1]: very fast

COc1cccc2c1C(=O)c1c(O)c3c(c(O)c1C2=O)C[C@@](O)(C(C)=NOCC(=O)NCC(=O)N[C@@H](Cc1ccccc1)C(=O)N[C@@H](CC(C)C)C(=O)NCC(=O)N[C@@H](CCCCN)C(=O)N[C@@H](CO)C(=O)N[C@@H](CCCCN)C(=O)N[C@@H](C)C(=O)N[C@@H](C)C(=O)N[C@@H](CCCCN)C(=O)N[C@@H](CC(N)=O)C(=O)O)C[C@@H]3O[C@H]1C[C@H](N)[C@H](O)[C@H](C)O1 [conjugate 3, Dau=Aoa-GFLG-KSKAAKN-OH] ({Daunorubicin(13-NOCH2CO)}-GFLGKSKAAKN-OH)
Viability (%) at 10^−5 M Concentration, After 72 h Incubation (PANC-1 cells; [3]): 105.1 ± 1.9% | Viability (%) at 10-5 M concentration, after 72 h incubation, Colo-205 (Colo-205 cells; [4]): 59.3 ± 3.6% | Viability (%) at 10-5 M concentration, after 72 h incubation, A2058 (A2058 cells; [4]): 79.4 ± 17.6% | Viability (%) at 10-5 M concentration, after 72 h incubation, EBC-1 (EBC-1 cells; [4]): 76.2 ± 13.7% | Time to complete lysosomal degradation [1]: ≤ 1 h

COc1cccc2c1C(=O)c1c(O)c3c(c(O)c1C2=O)C[C@@](O)(C(C)=NOCC(=O)NCC(=O)N[C@@H](Cc1ccccc1)C(=O)N[C@@H](CC(C)C)C(=O)NCC(=O)NCCCC[C@H](NC(=O)CNC(=O)[C@H](CC(C)C)NC(=O)[C@H](Cc1ccccc1)NC(=O)CNC(=O)CON=C(C)[C@]1(O)Cc2c(O)c4c(c(O)c2[C@@H](O[C@H]2C[C@H](N)[C@H](O)[C@H](C)O2)C1)C(=O)c1c(OC)cccc1C4=O)C(=O)N[C@@H](CO)C(=O)N[C@@H](CCCCN)C(=O)N[C@@H](C)C(=O)N[C@@H](C)C(=O)N[C@@H](CCCCN)C(=O)N[C@@H](CC(N)=O)C(=O)O)C[C@@H]3O[C@H]1C[C@H](N)[C@H](O)[C@H](C)O1 [conjugate 5, Dau=Aoa-GFLG-K(Dau=Aoa-GFLG)SKAAKN-OH] ({Daunorubicin(13-NOCH2CO)}-GFLGK([Gly-Leu-Phe-Gly-Daunorubicin(13-NOCH2CO)])SKAAKN-OH)
Viability (%) at 10^−5 M Concentration, After 72 h Incubation (PANC-1 cells; [3]): 31.3 ± 1.8% | Viability after 24 h (PANC-1 cells; PANC-1, impedimetry, 10^−5 M, 24 h (Figure 1A)): 34% | Viability (%) at 10-5 M concentration, after 72 h incubation, Colo-205 (Colo-205 cells; [4]): 45.8 ± 2.6% | Viability (%) at 10-5 M concentration, after 72 h incubation, A2058 (A2058 cells; [4]): 61.9 ± 11.6% | Viability (%) at 10-5 M concentration, after 72 h incubation, EBC-1 (EBC-1 cells; [4]): 57.6 ± 11.1% | Time to complete lysosomal degradation [1]: > 72 h

COc1cccc2c1C(=O)c1c(O)c3c(c(O)c1C2=O)C[C@@](O)(C(C)=NOCC(=O)N[C@@H](CO)C(=O)N[C@@H](CCCCN)C(=O)N[C@@H](C)C(=O)N[C@@H](C)C(=O)N[C@@H](CCCCN)C(=O)N[C@@H](CC(N)=O)C(=O)O)C[C@@H]3O[C@H]1C[C@H](N)[C@H](O)[C@H](C)O1 [conjugates 1] ({Daunorubicin(13-NOCH2CO)}-SKAAKN-OH)
Speed of lysosomal degradation (in words) [1]: very fast

Dau=Aoa-GFLG-K(Dau=Aoa-GFLG)SKAAKN-OH
fragment found [2]: Dau=Aoa-G-OH, minor; also recorded: Dau=Aoa-GF-OH; also recorded: Dau=Aoa-GFL-OH; also recorded: H-K(Dau=Aoa-GFLG)SK-OH; also recorded: H-K(Dau=Aoa-GFLG)SKAA-OH; also recorded: H-K(Dau=Aoa-GFLG)SKAAKN-OH

Dau=Aoa-GFLG-KSKAAKN-OH
fragment found [2]: Dau=Aoa-GFL-OH; also recorded: Dau=Aoa-GFLGK-OH; also recorded: Dau=Aoa-GFLGKSK-OH, first_seen, 0 min; also recorded: Dau=Aoa-GFLGKSKAA-OH, first_seen, 0 min; also recorded: Dau=Aoa-G-OH, 30 min; also recorded: Dau=Aoa-GF-OH, major, 30 min

Dau=Aoa-KSKAAKN-OH
fragment found [2]: Dau=Aoa-K-OH, minor, 30 min; also recorded: Dau=Aoa-KS-OH, 15 min; also recorded: Dau=Aoa-KSK-OH

Dau=Aoa-SKAAKN-OH
fragment found [2]: Dau=Aoa-S-OH, 0 min; also recorded: Dau=Aoa-SK-OH, 0 min
